17 molecules from patent US7348427B2, “Antipathogenic benzamide compounds” (Genesoft Pharmaceuticals, Inc., priority 2001, dated 2008) can be followed below.

SMILES strings stand for the structures.

In one assay the test system is E. faecalis ATCC 29212. The assay is described as follows: MIC, NCCLS broth microdilution assay. It counts as cell-based, Enterococcus faecalis. The note with it: C = E. faecalis ATCC 29212. An outline of the steps: (§1)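 Broth microdilution per NCCLS M7-A4 (1997) guidelines; MIC recorded as minimal inhibitory concentration.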
Assay [1] relates to Candida albicans (ATCC 38247). Put plainly: Antifungal MIC assay. The note with it: B = C. albicans ATCC 38247. Type of assay: cell-based. An outline of the steps:
(§2)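 MIC determined by broth microdilution in microtiter plates per NCCLS documents M7-A4, M11-A4 (1997) and M27-T (1995). Antifungal testing against the yeast followed the method recommended in the Manual of Clinical Microbiology (1995).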

The test system of assay [2] is Bacillus cereus (ATCC 11778). The assay is described as follows: MIC, NCCLS broth microdilution assay. The conditions noted are these: A = B. cereus ATCC 11778. Type of assay: cell-based. Summed up:
as §2

The test system of assay [3] is Staphylococcus aureus (ATCC 13709, a methicillin sensitive strain (MSSA)). Put plainly: MIC, NCCLS broth microdilution assay. The conditions noted are these: E = S. aureus ATCC 13709. It counts as cell-based. An outline of the steps: as §2
A general note: Broth dilution looks for growth in wells or tubes with falling amounts of substance.

The test system of assay [4] is Staphylococcus aureus (ATCC 27660, a methicillin resistant strain (MRSA)). The assay is described as follows: MIC, NCCLS broth microdilution assay. It counts as cell-based. The note with it: F = S. aureus ATCC 27660. Summed up:
as §2

The test system of a further assay is S. pneumoniae ATCC 49619. The assay is described as follows: MIC, NCCLS broth microdilution assay. It counts as cell-based, Streptococcus pneumoniae. The note with it: H = S. pneumoniae ATCC 49619. Summed up:
as §1

For the molecule `Cn1cc(NC(=O)c2cc(NC(=O)c3cc(NC(=O)c4ccc(F)cc4F)cn3C)cn2C)cc1C(=O)NCCN` [Compound B-21], the “Minimum Inhibitory Concentration (MIC)” value with E. faecalis ATCC 29212 is recorded as “++ (++ = 4 < MIC < 12)”; in assay [1], “+ (+ = 12 ≦ MIC ≦ 32)”; in assay [2] it was “+ (+ = 12 ≦ MIC ≦ 32)”; in assay [3], “+ (+ = 12 ≦ MIC ≦ 32)”; in assay [4], “++ (++ = 4 < MIC < 12)”; with S. pneumoniae ATCC 49619, “++ (++ = 4 < MIC < 12)”.
As for `Cn1cc(NC(=O)c2cc(NC(=O)c3cc(NC(=O)c4ccc(F)cc4F)cn3C)cn2C)cc1C(=O)NCCNC(=N)N` [Compound B-23], the “Minimum Inhibitory Concentration (MIC)” value in the assay with E. faecalis ATCC 29212 was “+++ (+++ = MIC ≦ 4)”; in assay [1], “++ (++ = 4 < MIC < 12)”; in assay [2], “+++ (+++ = MIC ≦ 4)”; in assay [3], “+++ (+++ = MIC ≦ 4)”; in assay [4] it was “+++ (+++ = MIC ≦ 4)”; in the assay on S. pneumoniae ATCC 49619, “+++ (+++ = MIC ≦ 4)”.
As to `Cn1cc(NC(=O)c2cc(NC(=O)c3cc(NC(=O)c4ccc(F)cc4F)cn3C)cn2C)cc1C(=O)NCCN(CCO)CCO` [Compound B-25], the “Minimum Inhibitory Concentration (MIC)” value is “+ (+ = 12 ≦ MIC ≦ 32)” in the assay with E. faecalis ATCC 29212; over 32 µg/mL in assay [1]; “+ (+ = 12 ≦ MIC ≦ 32)” in assay [2]; “+ (+ = 12 ≦ MIC ≦ 32)” in assay [3]; “+ (+ = 12 ≦ MIC ≦ 32)” in assay [4]; “+++ (+++ = MIC ≦ 4)” in the assay on S. pneumoniae ATCC 49619.
As to `Cn1cc(NC(=O)c2cc(NC(=O)c3cc(NC(=O)c4ccc(F)cc4F)cn3C)cn2C)cc1C(=O)NCCN1CCNCC1` [Compound B-28], the “Minimum Inhibitory Concentration (MIC)” value in the assay on E. faecalis ATCC 29212 is “+ (+ = 12 ≦ MIC ≦ 32)”; in assay [1], over 32 µg/mL; in assay [2], “+ (+ = 12 ≦ MIC ≦ 32)”; in assay [3], “+ (+ = 12 ≦ MIC ≦ 32)”; in assay [4], “+ (+ = 12 ≦ MIC ≦ 32)”; in the assay on S. pneumoniae ATCC 49619, “+++ (+++ = MIC ≦ 4)”.
As for `Cn1cc(NC(=O)c2cc(NC(=O)c3cc(NC(=O)c4ccc(F)cc4F)cn3C)cn2C)cc1C(=O)NCCN1CCC(F)CC1` [Compound B-29], the “Minimum Inhibitory Concentration (MIC)” value is “+++ (+++ = MIC ≦ 4)” with E. faecalis ATCC 29212; “+ (+ = 12 ≦ MIC ≦ 32)” in assay [1]; “+++ (+++ = MIC ≦ 4)” in assay [2]; “+++ (+++ = MIC ≦ 4)” in assay [3]; “+++ (+++ = MIC ≦ 4)” in assay [4]; “+++ (+++ = MIC ≦ 4)” in the assay with S. pneumoniae ATCC 49619.
Turning to `Cn1cc(NC(=O)c2cc(NC(=O)c3cc(NC(=O)c4ccc(F)cc4F)cn3C)cn2C)cc1C(=O)NCC[N+]1(C)CCOCC1` [Compound B-30], the “Minimum Inhibitory Concentration (MIC)” value in the assay on E. faecalis ATCC 29212 is over 32 µg/mL; in assay [1], “+ (+ = 12 ≦ MIC ≦ 32)”; in assay [2], “+++ (+++ = MIC ≦ 4)”; in assay [3], “+++ (+++ = MIC ≦ 4)”; in assay [4], “+++ (+++ = MIC ≦ 4)”; in the assay with S. pneumoniae ATCC 49619, “+++ (+++ = MIC ≦ 4)”.
Take `Cn1cc(NC(=O)c2cc(NC(=O)c3cc(NC(=O)c4ccc(F)cc4)cn3C)cn2C)cc1C(=O)NCCN1CCOCC1` [Compound B-32]: the “Minimum Inhibitory Concentration (MIC)” value is “++ (++ = 4 < MIC < 12)” in the assay on E. faecalis ATCC 29212; over 32 µg/mL in assay [1]; “+ (+ = 12 ≦ MIC ≦ 32)” in assay [2]; “++ (++ = 4 < MIC < 12)” in assay [3]; “+ (+ = 12 ≦ MIC ≦ 32)” in assay [4]; “++ (++ = 4 < MIC < 12)” in the assay on S. pneumoniae ATCC 49619.
As for `Cn1cc(NC(=O)c2cc(NC(=O)c3ccc(F)cc3)cn2C)cc1C(=O)NCCN1CCSCC1` [Compound B-33], the “Minimum Inhibitory Concentration (MIC)” value was “++ (++ = 4 < MIC < 12)” with E. faecalis ATCC 29212; over 32 µg/mL in assay [1]; “+ (+ = 12 ≦ MIC ≦ 32)” in assay [2]; “++ (++ = 4 < MIC < 12)” in assay [3]; “+ (+ = 12 ≦ MIC ≦ 32)” in assay [4]; “+++ (+++ = MIC ≦ 4)” with S. pneumoniae ATCC 49619.
Take `Cn1cc(NC(=O)c2cc(NC(=O)c3cc(NC(=O)c4ccc(F)cc4)cn3C)cn2C)cc1C(=O)NCCN1CCSCC1` [Compound B-34]: the “Minimum Inhibitory Concentration (MIC)” value with E. faecalis ATCC 29212 was “+++ (+++ = MIC ≦ 4)”; in assay [1], over 32 µg/mL; in assay [2], “+++ (+++ = MIC ≦ 4)”; in assay [3], “+++ (+++ = MIC ≦ 4)”; in assay [4] it was “+++ (+++ = MIC ≦ 4)”; with S. pneumoniae ATCC 49619, “+++ (+++ = MIC ≦ 4)”.
On to `Cn1cc(NC(=O)c2cc(NC(=O)c3cc(NC(=O)c4cc(NC(=O)c5ccc(F)cc5)cn4C)cn3C)cn2C)cc1C(=O)NCCN1CCSCC1` [Compound B-35], for which the “Minimum Inhibitory Concentration (MIC)” value is “+++ (+++ = MIC ≦ 4)” in the assay with E. faecalis ATCC 29212; over 32 µg/mL in assay [1]; “+++ (+++ = MIC ≦ 4)” in assay [2]; “+++ (+++ = MIC ≦ 4)” in assay [3]; “+++ (+++ = MIC ≦ 4)” in assay [4]; “+++ (+++ = MIC ≦ 4)” with S. pneumoniae ATCC 49619.
Regarding `Cn1cc(NC(=O)c2cc(NC(=O)c3cc(NC(=O)c4cc(NC(=O)c5ccc(F)cc5)cn4C)cn3C)cn2C)cc1C(=O)NCCN1CCOCC1` [Compound B-37], the “Minimum Inhibitory Concentration (MIC)” value in the assay on E. faecalis ATCC 29212 is “+++ (+++ = MIC ≦ 4)”; in assay [1] it was over 32 µg/mL; in assay [2], “+++ (+++ = MIC ≦ 4)”; in assay [3], “+++ (+++ = MIC ≦ 4)”; in assay [4], over 32 µg/mL; with S. pneumoniae ATCC 49619, “+++ (+++ = MIC ≦ 4)”.
With `Cn1cc(NC(=O)c2cc(NC(=O)c3cc(NC(=O)c4ccccc4F)cn3C)cn2C)cc1C(=O)NCCN1CCOCC1` [Compound B-39], the “Minimum Inhibitory Concentration (MIC)” value in the assay on E. faecalis ATCC 29212 was “+++ (+++ = MIC ≦ 4)”; in assay [1], over 32 µg/mL; in assay [2], “+++ (+++ = MIC ≦ 4)”; in assay [3] it was “+++ (+++ = MIC ≦ 4)”; in assay [4], “++ (++ = 4 < MIC < 12)”; in the assay with S. pneumoniae ATCC 49619, “+++ (+++ = MIC ≦ 4)”.
Regarding `Cn1cc(NC(=O)c2cc(NC(=O)c3ccccc3F)cn2C)cc1C(=O)NCCN1CCSCC1` [Compound B-40], the “Minimum Inhibitory Concentration (MIC)” value is “+++ (+++ = MIC ≦ 4)” in the assay with E. faecalis ATCC 29212; over 32 µg/mL in assay [1]; “++ (++ = 4 < MIC < 12)” in assay [2]; “++ (++ = 4 < MIC < 12)” in assay [3]; “++ (++ = 4 < MIC < 12)” in assay [4]; “+++ (+++ = MIC ≦ 4)” with S. pneumoniae ATCC 49619.
With `Cn1cc(NC(=O)c2cc(NC(=O)c3cc(NC(=O)c4cc(NC(=O)c5ccccc5F)cn4C)cn3C)cn2C)cc1C(=O)NCCN1CCSCC1` [Compound B-42], the “Minimum Inhibitory Concentration (MIC)” value is “+++ (+++ = MIC ≦ 4)” in the assay on E. faecalis ATCC 29212; over 32 µg/mL in assay [1]; “+++ (+++ = MIC ≦ 4)” in assay [2]; “+++ (+++ = MIC ≦ 4)” in assay [3]; “+++ (+++ = MIC ≦ 4)” in assay [4]; “+++ (+++ = MIC ≦ 4)” with S. pneumoniae ATCC 49619.
For the molecule `Cn1cc(NC(=O)c2cc(NC(=O)c3ccccc3F)cn2C)cc1C(=O)NCCN1CCOCC1` [Compound B-43], the “Minimum Inhibitory Concentration (MIC)” value with E. faecalis ATCC 29212 was “+ (+ = 12 ≦ MIC ≦ 32)”; in assay [1], over 32 µg/mL; in assay [2], “+ (+ = 12 ≦ MIC ≦ 32)”; in assay [3] it was “+ (+ = 12 ≦ MIC ≦ 32)”; in assay [4], “+ (+ = 12 ≦ MIC ≦ 32)”; in the assay on S. pneumoniae ATCC 49619, “+ (+ = 12 ≦ MIC ≦ 32)”.
Turning to `Cn1cc(NC(=O)c2cc(NC(=O)c3cc(NC(=O)c4cc(NC(=O)c5ccccc5F)cn4C)cn3C)cn2C)cc1C(=O)NCCN1CCOCC1` [Compound B-44], the “Minimum Inhibitory Concentration (MIC)” value with E. faecalis ATCC 29212 was “++ (++ = 4 < MIC < 12)”; in assay [1] it was over 32 µg/mL; in assay [2], “+++ (+++ = MIC ≦ 4)”; in assay [3], “+++ (+++ = MIC ≦ 4)”; in assay [4], “++ (++ = 4 < MIC < 12)”; with S. pneumoniae ATCC 49619 it was “+++ (+++ = MIC ≦ 4)”.
For the molecule `Cn1cc(NC(=O)c2cc(NC(=O)c3cc(NC(=O)c4ccc(F)cc4NCCCNC4CCCCC4)cn3C)cn2C)cc1C(N)=O` [Compound B-51], the “Minimum Inhibitory Concentration (MIC)” value was over 32 µg/mL in the assay with E. faecalis ATCC 29212; over 32 µg/mL in assay [1]; “++ (++ = 4 < MIC < 12)” in assay [2]; “++ (++ = 4 < MIC < 12)” in assay [3]; “+ (+ = 12 ≦ MIC ≦ 32)” in assay [4]; “+ (+ = 12 ≦ MIC ≦ 32)” in the assay with S. pneumoniae ATCC 49619.
